In PubChem BioAssay AID248 (DTP/NCI, 2004):
Several values for one entry are separate records, joined by “and”; a condition that tells them apart may be missing. Equal entries are not always repeated. Inconclusive results and toxic doses are left out. Cut-off read from the data, not from the text of the source: active = T/C of 150% or more; inactive = T/C below 125%.

Test system: L1210 leukemia ip in BDF1 mice, survival T/C
Test: NCI In Vivo Anticancer Drug Screen. Data for tumor model L1210 Leukemia (intraperitoneal) in B6D2F1 (BDF1) mice
Settings: endpoint: mean survival time, higher = longer survival
In short: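 Mice bearing the transplanted tumor received compound or vehicle. Survival of the treated group was divided by that of the vehicle-treated control group to give the ratio.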

[1] = dose: 100.0 mg/kg/injection, schedule: Q04DX002 (ip), vehicle: Klucel (hydroxypropylcellulose) (HPC)
[2] = dose: 200.0 mg/kg/injection, schedule: Q04DX002 (ip), vehicle: Klucel (hydroxypropylcellulose) (HPC)
[3] = dose: 400.0 mg/kg/injection, schedule: Q04DX002 (ip), vehicle: Klucel (hydroxypropylcellulose) (HPC)
[4] = dose: 100.0 mg/kg/injection, schedule: Q01DX001 (ip), vehicle: saline
[5] = dose: 200.0 mg/kg/injection, schedule: Q01DX001 (ip), vehicle: saline
[6] = dose: 400.0 mg/kg/injection, schedule: Q01DX001 (ip), vehicle: saline
[7] = dose: 100.0 mg/kg/injection, schedule: Q04DX003 (ip), vehicle: Klucel (hydroxypropylcellulose) (HPC)
[8] = dose: 200.0 mg/kg/injection, schedule: Q04DX003 (ip), vehicle: Klucel (hydroxypropylcellulose) (HPC)
[9] = dose: 100.0 mg/kg/injection, schedule: Q04DX003 (ip), vehicle: saline with Tween-80
[10] = dose: 200.0 mg/kg/injection, schedule: Q04DX003 (ip), vehicle: saline with Tween-80
[11] = dose: 400.0 mg/kg/injection, schedule: Q04DX003 (ip), vehicle: saline with Tween-80
[12] = dose: 100.0 mg/kg/injection, schedule: Q01DX009 (ip), vehicle: Klucel (hydroxypropylcellulose) (HPC)
[13] = dose: 200.0 mg/kg/injection, schedule: Q01DX009 (ip), vehicle: Klucel (hydroxypropylcellulose) (HPC)
[14] = dose: 100.0 mg/kg/injection, schedule: Q01DX009 (ip), vehicle: saline with Tween-80
[15] = dose: 200.0 mg/kg/injection, schedule: Q01DX009 (ip), vehicle: saline with Tween-80
[16] = dose: 400.0 mg/kg/injection, schedule: Q01DX009 (ip), vehicle: saline with Tween-80

Measured: T/C

CCCc1ccccc1O
inactive: dose: 100.0 mg/kg/injection, schedule: Q04DX003 (ip), vehicle: alcohol 97 % of control | dose: 200.0 mg/kg/injection, schedule: Q04DX003 (ip), vehicle: alcohol 94 % of control

CCOC(=O)CNc1ccc(Br)cc1
inactive: [1] 108 % of control | [2] 108 % of control

O=[N+]([O-])c1ccc(/C=N/c2oc(-c3ccc([N+](=O)[O-])cc3)nc2Sc2ccccc2)cc1
inactive: dose: 25.0 mg/kg/injection, schedule: Q04DX002 (ip), vehicle: Klucel (hydroxypropylcellulose) (HPC) 106 % of control | [2] 96 % of control and 97 % of control and 92 % of control | [3] 96 % of control

NC(N)=S
inactive: dose: 100.0 mg/kg/injection, schedule: Q01DX009 (ip), vehicle: saline 103 % of control | dose: 100.0 mg/kg/injection, schedule: Q01DX015 (oral), vehicle: saline 97 % of control and 121 % of control | dose: 100.0 mg/kg/injection, schedule: Q04DX002 (ip), vehicle: saline 100 % of control | dose: 200.0 mg/kg/injection, schedule: Q01DX009 (ip), vehicle: saline 101 % of control | dose: 200.0 mg/kg/injection, schedule: Q01DX015 (oral), vehicle: saline 100 % of control and 121 % of control | dose: 200.0 mg/kg/injection, schedule: Q04DX002 (ip), vehicle: saline 113 % of control | dose: 400.0 mg/kg/injection, schedule: Q01DX009 (ip), vehicle: saline 103 % of control | dose: 400.0 mg/kg/injection, schedule: Q01DX015 (oral), vehicle: saline 122 % of control | dose: 400.0 mg/kg/injection, schedule: Q04DX002 (ip), vehicle: saline 95 % of control

CC1(C)CC(=O)C2=C(C1)Nc1ccc(Cl)cc1NC2c1cccc([N+](=O)[O-])c1 (stereo not given)
inactive: [1] 98 % of control | [2] 105 % of control | [3] 102 % of control

CCOCCOC(=O)c1ccc(C(N)=NC2CCCCC2)cc1
inactive: [4] 100 % of control | [5] 102 % of control | [6] 90 % of control

CC(CCc1cccc2ccccc12)C(=O)O (stereo not given)
inactive: [7] 103 % of control | [8] 100 % of control | dose: 400.0 mg/kg/injection, schedule: Q04DX003 (ip), vehicle: Klucel (hydroxypropylcellulose) (HPC) 105 % of control

CC(C)CCCC(C)C1CCC2C3CC(=O)NC45CC4CCC5(C)C3CCC12C (stereo not given)
inactive: [9] 116 % of control | [10] 97 % of control | [11] 92 % of control

Nc1ccc(Nc2cc(S(=O)(=O)O)c(N)c3c2C(=O)c2ccccc2C3=O)cc1
inactive: [4] 97 % of control | [6] 93 % of control

CC(=O)Oc1ccc(C2(c3ccc(OC(C)=O)cc3)C(=O)Nc3ccccc32)cc1
inactive: [4] 91 % of control | [12] 103 % of control | [5] 92 % of control | [13] 97 % of control | [6] 87 % of control | dose: 400.0 mg/kg/injection, schedule: Q01DX009 (ip), vehicle: Klucel (hydroxypropylcellulose) (HPC) 104 % of control

O=C(Nc1ccccc1)Nc1nccs1
inactive: [4] 102 % of control | [7] 105 % of control | [5] 106 % of control | [8] 100 % of control | [6] 101 % of control

CCOC(=O)C1=C(O)c2c(sc(C)c2-c2ccccc2)N(S(=O)(=O)c2ccc(C)cc2)CC1
inactive: dose: 50.0 mg/kg/injection, schedule: Q04DX003 (ip), vehicle: saline with Tween-80 98 % of control | [9] 93 % of control | [10] 93 % of control | [11] 98 % of control

C=CS(=O)(=O)Cc1ccc(Cl)cc1
inactive: dose: 10.0 mg/kg/injection, schedule: Q04DX002 (ip), vehicle: Klucel (hydroxypropylcellulose) (HPC) 117 % of control | dose: 20.0 mg/kg/injection, schedule: Q04DX002 (ip), vehicle: Klucel (hydroxypropylcellulose) (HPC) 106 % of control | dose: 40.0 mg/kg/injection, schedule: Q04DX002 (ip), vehicle: Klucel (hydroxypropylcellulose) (HPC) 98 % of control

CCOC(=O)c1cc([N+](=O)[O-])cnc1C
inactive: dose: 100.0 mg/kg/injection, schedule: Q01DX001 (ip), vehicle: saline sonified 96 % of control | dose: 200.0 mg/kg/injection, schedule: Q01DX001 (ip), vehicle: saline sonified 96 % of control | dose: 400.0 mg/kg/injection, schedule: Q01DX001 (ip), vehicle: saline sonified 97 % of control

C=NCC#N
inactive: [14] 91 % of control | [15] 91 % of control | [16] 93 % of control

CCN1C(=O)c2ccccc2C1=O
inactive: dose: 50.0 mg/kg/injection, schedule: Q01DX009 (ip), vehicle: Klucel (hydroxypropylcellulose) (HPC) 107 % of control | [4] 96 % of control | [12] 94 % of control | [5] 98 % of control | [13] 89 % of control | [6] 88 % of control

CC(C)/C=N\NC(=O)c1ccc[n+](C)c1
inactive: dose: 50.0 mg/kg/injection, schedule: Q01DX009 (ip), vehicle: saline with Tween-80 100 % of control | [14] 92 % of control

[O]=[Nb]
inactive: dose: 2.5 mg/kg/injection, schedule: Q01DX009 (ip), vehicle: saline with Tween-80 95 % of control | dose: 5.0 mg/kg/injection, schedule: Q01DX009 (ip), vehicle: saline with Tween-80 96 % of control | dose: 10.0 mg/kg/injection, schedule: Q01DX009 (ip), vehicle: saline with Tween-80 97 % of control

COc1cccc(CNc2cccc(Cl)c2Cl)c1OC
inactive: [14] 103 % of control | dose: 100.0 mg/kg/injection, schedule: Q04DX003 (ip), vehicle: other 102 % of control | [15] 94 % of control | dose: 200.0 mg/kg/injection, schedule: Q04DX003 (ip), vehicle: other 96 % of control | [16] 109 % of control | dose: 400.0 mg/kg/injection, schedule: Q04DX003 (ip), vehicle: other 113 % of control

CC(C(=O)O)C1(O)CCCCC1 (stereo not given)
inactive: dose: 5.0 mg/kg/injection, schedule: Q04DX003 (ip), vehicle: saline with Tween-80 96 % of control | dose: 10.0 mg/kg/injection, schedule: Q04DX003 (ip), vehicle: saline with Tween-80 89 % of control | dose: 20.0 mg/kg/injection, schedule: Q04DX003 (ip), vehicle: saline with Tween-80 87 % of control

C[PH+](c1ccccc1)c1ccccc1.C[PH+](c1ccccc1)c1ccccc1.O=C([S-])[S-].[Pt+2]
inactive: dose: 75.0 mg/kg/injection, schedule: Q04DX003 (ip), vehicle: saline 97 % of control | dose: 150.0 mg/kg/injection, schedule: Q04DX003 (ip), vehicle: saline 92 % of control | dose: 300.0 mg/kg/injection, schedule: Q04DX003 (ip), vehicle: saline 100 % of control

COC1OC(COC(=O)OCC(Cl)(Cl)Cl)C(OC(=O)OCC(Cl)(Cl)Cl)C(OC(=O)OCC(Cl)(Cl)Cl)C1OC(=O)OCC(Cl)(Cl)Cl (stereo not given)
inactive: dose: 75.0 mg/kg/injection, schedule: Q01DX001 (ip), vehicle: other 90 % of control | dose: 150.0 mg/kg/injection, schedule: Q01DX001 (ip), vehicle: other 92 % of control | dose: 300.0 mg/kg/injection, schedule: Q01DX001 (ip), vehicle: other 90 % of control
